Literature values as cited in publication PMC11372459 (Acta Pharmaceutica Sinica. B, 2024).

Tested on: Gram-positive bacteria

Nisin (ITSISLCTPGCKTGALMGCNMKTATCHCSIHVSK; not fully specified; Lantibiotic nisin-A; UniProt P13068 24-57, looked up)
antibacterial spectrum: specific activity against Gram-positive bacteria
